≈ marks a conversion by molar mass, not a printed value.
Legend:
[1] = test system: ALK tyrosine kinase receptor (Homo sapiens), Q9UM73 [C1156Y]; test: Inhibition of wild-type human partial length ALK C1156Y mutant (I1088 to E1409 residues) expressed in mammalian expression system at 1 uM by Kinomescan method relative to control
[2] = molecular target: Aurora kinase A (Homo sapiens) (UniProt O14965); test: Inhibition of wild-type human partial length AURKA (E122 to K401 residues) expressed in mammalian expression system at 1 uM by Kinomescan method relative to control
[3] = molecular target: Serine/threonine-protein kinase DCLK2 (Homo sapiens) (UniProt Q8N568); test: Inhibition of wild-type human partial length DCAMKL2 (K273 to V664 residues) expressed in bacterial expression system at 1 uM by Kinomescan method relative to control
[4] = molecular target: Serine/threonine-protein kinase MRCK gamma (Homo sapiens) (UniProt Q6DT37); test: Inhibition of wild-type human partial length DMPK2 (S46 to S408 residues) expressed in bacterial expression system at 1 uM by Kinomescan method relative to control
[5] = molecular target: Receptor tyrosine-protein kinase erbB-3 (Homo sapiens) (UniProt P21860); test: Inhibition of wild-type human partial length ERBB3 (G684 to A987 residues) expressed in mammalian expression system at 1 uM by Kinomescan method relative to control
[6] = molecular target: Tyrosine-protein kinase Fgr (Homo sapiens) (UniProt P09769); test: Inhibition of wild-type human partial length FGR (L233 to T529 residues) expressed in bacterial expression system at 1 uM by Kinomescan method relative to control
[7] = molecular target: Inhibitor of nuclear factor kappa-B kinase subunit beta (Homo sapiens) (UniProt O14920); test: Inhibition of wild-type human full length IKK-beta (M1 to S756 residues) expressed in mammalian expression system at 1 uM by Kinomescan method relative to control
[8] = molecular target: Dual specificity mitogen-activated protein kinase kinase 5 (Homo sapiens) (UniProt Q13163); test: Inhibition of wild-type human partial length MEK5 (L98 to P448 residues) expressed in mammalian expression system at 1 uM by Kinomescan method relative to control
[9] = molecular target: Mitogen-activated protein kinase kinase kinase 11 (Homo sapiens) (UniProt Q16584); test: Inhibition of wild-type human partial length MLK3 (I77 to W399 residues) expressed in bacterial expression system at 1 uM by Kinomescan method relative to control
[10] = molecular target: Serine/threonine-protein kinase PLK3 (Homo sapiens) (UniProt Q9H4B4); test: Inhibition of wild-type human partial length PLK3 (A42 to L334 residues) expressed in mammalian expression system at 1 uM by Kinomescan method relative to control
[11] = molecular target: Serine/threonine-protein kinase RIO1 (Homo sapiens) (UniProt Q9BRS2); test: Inhibition of wild-type human full length RIOK1 (M1 to K568 residues) expressed in bacterial expression system at 1 uM by Kinomescan method relative to control
[12] = molecular target: TGF-beta receptor type-1 (Homo sapiens) (UniProt P36897); test: Inhibition of wild-type human partial length TGFBR1 (D179 to M503 residues) expressed in bacterial expression system at 1 uM by Kinomescan method relative to control
[13] = molecular target: Dual specificity protein kinase TTK (Homo sapiens) (UniProt P33981); test: Inhibition of wild-type human partial length TTK (N505 to V798 residues) expressed in bacterial expression system at 1 uM by Kinomescan method relative to control
[14] = Kinetic solubility of the compound at pH 1.5 by shake flask assay; type: physicochemical; details: buffer, read-out: Kinetic_solubility
[15] = molecular target: Bone morphogenetic protein receptor type-2 (Homo sapiens) (UniProt Q13873); test: Inhibition of wild-type human partial length BMPR2 (R179 to Q526 residues) expressed in mammalian expression system at 10 uM by Kinomescan method relative to control
[16] = molecular target: Calcium/calmodulin-dependent protein kinase type 1D (Homo sapiens) (UniProt Q8IU85); test: Inhibition of wild-type human partial length CAMK1D (M1 to K299 residues) expressed in bacterial expression system at 10 uM by Kinomescan method relative to control
[17] = molecular target: Calcium/calmodulin-dependent protein kinase type II subunit alpha (Homo sapiens) (UniProt Q9UQM7); test: Inhibition of wild-type human partial length CAMK2A (M1 to K328 residues) expressed in bacterial expression system at 10 uM by Kinomescan method relative to control
[18] = molecular target: Cyclin-dependent kinase 11A (Homo sapiens) (UniProt Q9UQ88); test: Inhibition of wild-type human partial length CDC2L2 (D391 to K730 residues) expressed in bacterial expression system at 10 uM by Kinomescan method relative to control
[19] = molecular target: Cyclin-dependent kinase 7 (Homo sapiens) (UniProt P50613); test: Inhibition of wild-type human full length CDK7 (M1 to L344 residues) expressed in mammalian expression system at 10 uM by Kinomescan method relative to control
[20] = molecular target: Dual specificity protein kinase CLK4 (Homo sapiens) (UniProt Q9HAZ1); test: Inhibition of wild-type human partial length CLK4 (R135 to K481 residues) expressed in bacterial expression system at 10 uM by Kinomescan method relative to control
[21] = molecular target: Megakaryocyte-associated tyrosine-protein kinase (Homo sapiens) (UniProt P42679); test: Inhibition of wild-type human full length CTK (M43 to P508 residues) expressed in mammalian expression system at 10 uM by Kinomescan method relative to control
[22] = molecular target: Beta-adrenergic receptor kinase 1 (Homo sapiens) (UniProt P25098); test: Inhibition of wild-type human full length GRK2 (M1 to L689 residues) expressed in mammalian expression system at 10 uM by Kinomescan method relative to control
[23] = molecular target: Phosphatidylinositol 4,5-bisphosphate 3-kinase catalytic subunit alpha isoform (Homo sapiens) (UniProt P42336); test: Inhibition of wild-type human partial length PIK3CA (R108 to N1068 residues) expressed in mammalian expression system at 10 uM by Kinomescan method relative to control
[24] = molecular target: Serine/threonine-protein kinase RIO3 (Homo sapiens) (UniProt O14730); test: Inhibition of wild-type human full length RIOK3 (M1 to E519 residues) expressed in bacterial expression system at 10 uM by Kinomescan method relative to control
[25] = molecular target: Ribosomal protein S6 kinase alpha-3 (Homo sapiens) (UniProt P51812); test: Inhibition of wild-type human partial length C-terminal RSK2 kinase domain 2 (V402 to S715 residues) expressed in mammalian expression system at 10 uM by Kinomescan method relative to control
[26] = molecular target: Serine/threonine-protein kinase SIK1 (Homo sapiens) (UniProt P57059); test: Inhibition of wild-type human partial length SIK (M1 to Y304 residues) expressed in bacterial expression system at 10 uM by Kinomescan method relative to control
[27] = molecular target: Phosphatidylinositol 3-kinase catalytic subunit type 3 (Homo sapiens) (UniProt Q8NEB9); test: Inhibition of wild-type human partial length VPS34 (S282 to H879 residues) expressed in mammalian expression system at 10 uM by Kinomescan method relative to control

Megakaryocyte-associated tyrosine-protein kinase (Homo sapiens), sequence (P42679 whole entry, the tested form may be a part): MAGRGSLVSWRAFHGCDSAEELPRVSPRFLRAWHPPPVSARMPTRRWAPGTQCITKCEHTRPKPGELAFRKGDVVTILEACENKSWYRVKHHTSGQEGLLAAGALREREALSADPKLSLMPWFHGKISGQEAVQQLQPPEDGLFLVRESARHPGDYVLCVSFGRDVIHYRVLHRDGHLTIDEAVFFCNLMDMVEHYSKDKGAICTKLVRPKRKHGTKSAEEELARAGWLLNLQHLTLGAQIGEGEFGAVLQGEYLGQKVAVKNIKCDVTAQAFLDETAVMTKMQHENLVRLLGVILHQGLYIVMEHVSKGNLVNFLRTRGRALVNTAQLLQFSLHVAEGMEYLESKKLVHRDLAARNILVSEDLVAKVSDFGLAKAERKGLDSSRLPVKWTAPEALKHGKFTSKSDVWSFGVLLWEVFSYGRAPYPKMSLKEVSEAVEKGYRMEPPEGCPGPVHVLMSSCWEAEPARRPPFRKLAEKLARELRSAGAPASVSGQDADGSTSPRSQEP
Beta-adrenergic receptor kinase 1 (Homo sapiens), sequence (P25098 whole entry, the tested form may be a part, canonical isoform): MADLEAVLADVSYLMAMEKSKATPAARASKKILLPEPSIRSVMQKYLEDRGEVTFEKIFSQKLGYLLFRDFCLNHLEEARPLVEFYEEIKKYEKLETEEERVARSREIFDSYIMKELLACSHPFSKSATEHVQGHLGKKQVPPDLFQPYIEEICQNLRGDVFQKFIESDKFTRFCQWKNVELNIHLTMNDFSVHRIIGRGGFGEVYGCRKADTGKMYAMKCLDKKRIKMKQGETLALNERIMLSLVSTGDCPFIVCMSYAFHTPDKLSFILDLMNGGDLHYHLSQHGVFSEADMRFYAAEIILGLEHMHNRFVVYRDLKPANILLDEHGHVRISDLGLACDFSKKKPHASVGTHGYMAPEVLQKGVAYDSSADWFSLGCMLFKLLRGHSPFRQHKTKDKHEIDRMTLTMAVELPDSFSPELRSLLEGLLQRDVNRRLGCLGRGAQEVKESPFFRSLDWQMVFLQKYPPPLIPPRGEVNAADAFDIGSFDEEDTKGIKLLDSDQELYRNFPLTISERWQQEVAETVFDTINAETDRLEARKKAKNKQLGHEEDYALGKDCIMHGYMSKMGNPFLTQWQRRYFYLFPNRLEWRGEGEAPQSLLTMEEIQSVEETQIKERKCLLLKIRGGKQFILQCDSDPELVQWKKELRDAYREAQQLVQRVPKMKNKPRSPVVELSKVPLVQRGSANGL
Cyclin-dependent kinase 11A (Homo sapiens), sequence (Q9UQ88 whole entry, the tested form may be a part): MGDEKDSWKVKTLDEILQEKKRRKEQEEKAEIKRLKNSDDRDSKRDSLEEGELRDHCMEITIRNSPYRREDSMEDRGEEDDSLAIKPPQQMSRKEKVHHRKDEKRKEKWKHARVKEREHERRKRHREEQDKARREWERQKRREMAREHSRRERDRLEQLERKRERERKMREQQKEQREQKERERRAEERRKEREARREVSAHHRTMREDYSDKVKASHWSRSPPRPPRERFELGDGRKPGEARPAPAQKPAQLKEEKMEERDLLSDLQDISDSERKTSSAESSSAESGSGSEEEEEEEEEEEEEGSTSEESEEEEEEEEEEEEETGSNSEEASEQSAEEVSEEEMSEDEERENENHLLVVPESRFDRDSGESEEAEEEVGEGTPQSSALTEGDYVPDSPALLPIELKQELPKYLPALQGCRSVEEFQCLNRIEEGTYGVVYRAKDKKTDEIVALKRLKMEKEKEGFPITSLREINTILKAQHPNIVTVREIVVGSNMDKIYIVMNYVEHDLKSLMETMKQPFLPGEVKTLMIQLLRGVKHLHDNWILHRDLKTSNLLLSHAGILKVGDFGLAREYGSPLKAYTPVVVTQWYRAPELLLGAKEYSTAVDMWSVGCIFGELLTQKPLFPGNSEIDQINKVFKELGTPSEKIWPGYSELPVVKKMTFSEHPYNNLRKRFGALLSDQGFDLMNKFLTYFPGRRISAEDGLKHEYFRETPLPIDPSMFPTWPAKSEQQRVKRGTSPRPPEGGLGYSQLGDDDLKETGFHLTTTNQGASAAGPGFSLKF
Dual specificity mitogen-activated protein kinase kinase 5 (Homo sapiens), sequence (Q13163 whole entry, the tested form may be a part): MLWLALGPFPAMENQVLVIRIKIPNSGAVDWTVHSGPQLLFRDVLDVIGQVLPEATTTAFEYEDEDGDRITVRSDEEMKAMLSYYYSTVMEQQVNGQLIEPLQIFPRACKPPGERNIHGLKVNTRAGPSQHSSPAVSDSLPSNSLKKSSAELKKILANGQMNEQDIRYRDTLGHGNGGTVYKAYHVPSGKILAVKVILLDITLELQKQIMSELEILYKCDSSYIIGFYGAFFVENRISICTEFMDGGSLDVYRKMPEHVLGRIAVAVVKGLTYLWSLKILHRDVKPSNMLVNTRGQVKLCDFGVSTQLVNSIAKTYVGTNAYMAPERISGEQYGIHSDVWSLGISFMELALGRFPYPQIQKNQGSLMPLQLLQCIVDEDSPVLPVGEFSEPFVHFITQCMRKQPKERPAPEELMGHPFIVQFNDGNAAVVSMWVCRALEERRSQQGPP
Mitogen-activated protein kinase kinase kinase 11 (Homo sapiens), sequence (Q16584 whole entry, looked up, the tested form may be a part): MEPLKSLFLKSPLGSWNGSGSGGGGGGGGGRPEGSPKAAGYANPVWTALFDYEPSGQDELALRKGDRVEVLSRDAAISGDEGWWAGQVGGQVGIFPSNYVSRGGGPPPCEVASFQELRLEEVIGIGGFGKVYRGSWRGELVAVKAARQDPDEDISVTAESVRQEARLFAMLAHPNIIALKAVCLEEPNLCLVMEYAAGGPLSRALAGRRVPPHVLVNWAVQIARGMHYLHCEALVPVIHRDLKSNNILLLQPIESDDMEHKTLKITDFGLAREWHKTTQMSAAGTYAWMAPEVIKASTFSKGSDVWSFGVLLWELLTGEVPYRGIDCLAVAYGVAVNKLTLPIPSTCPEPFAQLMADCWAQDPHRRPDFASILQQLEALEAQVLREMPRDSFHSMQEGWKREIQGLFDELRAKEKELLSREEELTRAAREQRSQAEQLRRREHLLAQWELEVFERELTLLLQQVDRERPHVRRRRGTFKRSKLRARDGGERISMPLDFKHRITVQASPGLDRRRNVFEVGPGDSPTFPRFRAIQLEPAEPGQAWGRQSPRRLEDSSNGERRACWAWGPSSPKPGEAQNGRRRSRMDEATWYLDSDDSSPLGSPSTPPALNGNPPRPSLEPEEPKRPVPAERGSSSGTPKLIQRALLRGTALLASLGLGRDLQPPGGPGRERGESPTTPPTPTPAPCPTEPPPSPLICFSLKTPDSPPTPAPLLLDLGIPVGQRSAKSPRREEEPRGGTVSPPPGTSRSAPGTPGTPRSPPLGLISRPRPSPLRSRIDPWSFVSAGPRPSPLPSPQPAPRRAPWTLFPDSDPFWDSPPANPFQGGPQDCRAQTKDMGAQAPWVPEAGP
ALK tyrosine kinase receptor (Homo sapiens), Q9UM73 [C1156Y], sequence (Q9UM73 whole entry C1156Y, looked up, the tested form may be a part): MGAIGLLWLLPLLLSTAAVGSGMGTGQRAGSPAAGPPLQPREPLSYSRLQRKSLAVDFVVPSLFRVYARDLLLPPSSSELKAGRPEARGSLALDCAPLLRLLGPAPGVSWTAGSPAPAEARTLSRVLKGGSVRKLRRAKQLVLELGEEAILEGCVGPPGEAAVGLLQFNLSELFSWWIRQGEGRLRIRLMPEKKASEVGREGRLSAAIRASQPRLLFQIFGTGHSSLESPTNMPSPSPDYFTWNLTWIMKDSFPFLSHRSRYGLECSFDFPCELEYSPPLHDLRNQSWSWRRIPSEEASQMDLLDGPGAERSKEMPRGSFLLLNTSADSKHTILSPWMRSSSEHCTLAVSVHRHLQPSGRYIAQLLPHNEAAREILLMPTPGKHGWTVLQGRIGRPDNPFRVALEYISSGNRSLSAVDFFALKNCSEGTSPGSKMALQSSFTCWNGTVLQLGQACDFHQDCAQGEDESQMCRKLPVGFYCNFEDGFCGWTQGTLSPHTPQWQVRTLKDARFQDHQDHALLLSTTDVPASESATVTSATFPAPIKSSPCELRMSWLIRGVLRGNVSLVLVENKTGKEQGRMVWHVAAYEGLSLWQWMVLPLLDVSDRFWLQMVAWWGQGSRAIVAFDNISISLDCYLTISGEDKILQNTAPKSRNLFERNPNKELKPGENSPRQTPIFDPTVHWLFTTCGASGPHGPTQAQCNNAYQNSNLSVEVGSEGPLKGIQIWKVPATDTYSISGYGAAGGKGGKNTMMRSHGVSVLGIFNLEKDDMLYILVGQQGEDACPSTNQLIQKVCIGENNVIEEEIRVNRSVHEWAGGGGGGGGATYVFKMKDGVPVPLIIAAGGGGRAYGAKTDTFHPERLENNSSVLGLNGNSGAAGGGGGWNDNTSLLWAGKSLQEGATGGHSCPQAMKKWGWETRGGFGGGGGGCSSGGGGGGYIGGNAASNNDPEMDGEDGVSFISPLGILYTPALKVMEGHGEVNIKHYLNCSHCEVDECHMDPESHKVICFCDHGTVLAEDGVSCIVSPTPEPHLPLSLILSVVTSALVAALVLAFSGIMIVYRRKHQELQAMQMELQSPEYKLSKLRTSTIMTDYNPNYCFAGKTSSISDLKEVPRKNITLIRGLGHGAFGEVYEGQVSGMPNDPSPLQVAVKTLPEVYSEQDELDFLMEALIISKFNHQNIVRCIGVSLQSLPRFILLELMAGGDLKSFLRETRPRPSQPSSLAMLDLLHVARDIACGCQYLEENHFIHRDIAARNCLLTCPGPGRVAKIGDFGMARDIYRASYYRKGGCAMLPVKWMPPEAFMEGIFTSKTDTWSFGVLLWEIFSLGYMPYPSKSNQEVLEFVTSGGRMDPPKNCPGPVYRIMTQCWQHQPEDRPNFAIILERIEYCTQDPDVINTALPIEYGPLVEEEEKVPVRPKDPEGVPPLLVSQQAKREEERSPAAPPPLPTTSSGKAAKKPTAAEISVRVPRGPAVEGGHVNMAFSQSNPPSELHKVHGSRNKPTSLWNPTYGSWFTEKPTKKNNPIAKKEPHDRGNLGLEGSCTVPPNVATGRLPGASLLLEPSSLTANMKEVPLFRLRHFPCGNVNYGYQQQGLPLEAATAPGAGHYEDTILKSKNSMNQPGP

O=C(Nc1cccc([C@@H]2CN(c3ncnc4[nH]ccc34)CCN2CCO)c1)Nc1c(F)cccc1N1CCCC1
inhibition [1]: 70% | inhibition [2]: 3.6% | inhibition [3]: 99% | inhibition [4]: 100% | inhibition [5]: 74% | inhibition [6]: 77% | inhibition [7]: 74% | inhibition [8]: 67% | inhibition [9]: 100% | inhibition [10]: 74% | inhibition [11]: 33% | inhibition [12]: 71% | inhibition [13]: 98% | solubility kinetic [14]: 94 µg/mL (≈ 173 µM)

O=C(Nc1cccc([C@H]2CCCN(c3ncnc4[nH]ccc34)C2)c1)Nc1ccccc1N1CCCC1
inhibition [15]: 51% | inhibition [16]: 54% | inhibition [17]: 77% | inhibition [18]: 49% | inhibition [19]: 70% | inhibition [20]: 96% | inhibition [21]: 85% | inhibition [22]: 98% | inhibition [23]: 99% | inhibition [24]: 0.35% | inhibition [25]: 100% | inhibition [26]: 48% | inhibition [27]: 52%

From ChEMBL document CHEMBL4387741, “Optimization of novel reversible Bruton's tyrosine kinase inhibitors identified using Tethering-fragment-based screens” (Bioorg Med Chem, 2019)
